Results published in ChEMBL document CHEMBL1140691, “New type of anti-diabetic compounds from the processed leaves of Hydrangea macrophylla var. thunbergii (Hydrangeae Dulcis Folium)” (2007).

What was measured:
Type in all cases: functional
3T3-L1 [1] = assay: Increase in triglyceride levels in mouse 3T3L1 cells at 3 uM
3T3-L1 [2] = assay: Increase in triglyceride levels in mouse 3T3L1 cells at 10 uM
3T3-L1 [3] = assay: Increase in triglyceride levels in mouse 3T3L1 cells at 30 uM
3T3-L1 [4] = assay: Increase in triglyceride levels in mouse 3T3L1 cells at 1 uM
3T3-L1 [5] = assay: Increase in triglyceride levels in mouse 3T3L1 cells at 100 uM
Mus musculus [6] = assay: Decrease in blood free fatty acid levels in KKAy mouse at 100 mg/kg, po after 2 weeks
Mus musculus [7] = assay: Decrease in blood free fatty acid levels in KKAy mouse at 100 mg/kg, po
3T3-L1 [8] = assay: Increase in adiponectin gene expression in mouse 3T3L1 cells at 3 uM after 2 days relative to beta-actin mRNA expression
Mus musculus [9] = assay: Decrease in blood free fatty acid levels in KKAy mouse at 100 mg/kg, po after 1 week
Mus musculus [10] = assay: Decrease in blood glucose levels in KKAy mouse at 100 mg/kg, po after 1 week
Mus musculus [11] = assay: Effect on blood triglyceride levels in KKAy mouse at 100 mg/kg, po
3T3-L1 [12] = assay: Increase in 2-Deoxyglucose-uptake in mouse 3T3L1 cells at 3 uM by liquid scintillation counter
3T3-L1 [13] = assay: Increase in adiponectin release in mouse 3T3L1 cells at 30 uM on day 6 by ELISA
Mus musculus [14] = assay: Effect on blood triglyceride levels in KKAy mouse at 100 mg/kg, po after 1 week
Mus musculus [15] = assay: Effect on blood triglyceride levels in KKAy mouse at 100 mg/kg, po after 2 weeks
3T3-L1 [16] = assay: Increase in adiponectin release in mouse 3T3L1 cells at 30 uM on day 4 by ELISA
3T3-L1 [17] = assay: Increase in PPARgamma2 gene expression in mouse 3T3L1 cells at 3 uM after 2 days relative to beta-actin mRNA expression
3T3-L1 [18] = assay: Increase in GLUT4 gene expression in mouse 3T3L1 cells at 3 uM after 2 days relative to beta-actin mRNA expression
3T3-L1 [19] = assay: Decrease in IL6 gene expression in mouse 3T3L1 cells at 3 uM after 2 days relative to beta-actin mRNA expression
Mus musculus [20] = assay: Decrease in blood glucose levels in KKAy mouse at 100 mg/kg, po
3T3-L1 [21] = assay: Increase in adiponectin release in mouse 3T3L1 cells at 3 uM on day 6 by ELISA
3T3-L1 [22] = assay: Decrease in IL6 gene expression in mouse 3T3L1 cells at 100 uM after 2 days relative to beta-actin mRNA expression
3T3-L1 [23] = assay: Increase in 2-Deoxyglucose-uptake in mouse 3T3L1 cells at 100 uM by liquid scintillation counter
Mus musculus [24] = assay: Effect on blood triglyceride levels in KKAy mouse at 200 mg/kg, po after 2 weeks
3T3-L1 [25] = assay: Increase in PPARgamma2 gene expression in mouse 3T3L1 cells at 30 uM after 2 days relative to beta-actin mRNA expression
3T3-L1 [26] = assay: Increase in 2-Deoxyglucose-uptake in mouse 3T3L1 cells at 30 uM by liquid scintillation counter
3T3-L1 [27] = assay: Decrease in IL6 gene expression in mouse 3T3L1 cells at 30 uM after 2 days relative to beta-actin mRNA expression
3T3-L1 [28] = assay: Increase in 2-Deoxyglucose-uptake in mouse 3T3L1 cells at 1 uM by liquid scintillation counter
3T3-L1 [29] = assay: Increase in adiponectin release in mouse 3T3L1 cells at 100 uM on day 6 by ELISA
Mus musculus [30] = assay: Decrease in blood glucose levels in KKAy mouse at 200 mg/kg, po after 1 week
Mus musculus [31] = assay: Decrease in blood glucose levels in KKAy mouse at 200 mg/kg, po after 2 weeks
Mus musculus [32] = assay: Decrease in blood glucose levels in KKAy mouse at 200 mg/kg, po
Mus musculus [33] = assay: Decrease in blood free fatty acid levels in KKAy mouse at 200 mg/kg, po
Mus musculus [34] = assay: Effect on blood triglyceride levels in KKAy mouse at 200 mg/kg, po after 1 week
3T3-L1 [35] = assay: Increase in adiponectin release in mouse 3T3L1 cells at 10 uM on day 4 by ELISA
3T3-L1 [36] = assay: Increase in GLUT4 gene expression in mouse 3T3L1 cells at 30 uM after 2 days relative to beta-actin mRNA expression
3T3-L1 [37] = assay: Increase in adiponectin release in mouse 3T3L1 cells at 3 uM on day 4 by ELISA
Mus musculus [38] = assay: Decrease in blood glucose levels in KKAy mouse at 100 mg/kg, po after 2 weeks
3T3-L1 [39] = assay: Increase in PPARgamma2 gene expression in mouse 3T3L1 cells at 100 uM after 2 days relative to beta-actin mRNA expression
3T3-L1 [40] = assay: Increase in GLUT4 gene expression in mouse 3T3L1 cells at 100 uM after 2 days relative to beta-actin mRNA expression
3T3-L1 [41] = assay: Increase in adiponectin gene expression in mouse 3T3L1 cells at 100 uM after 2 days relative to beta-actin mRNA expression
Mus musculus [42] = assay: Effect on blood triglyceride levels in KKAy mouse at 200 mg/kg, po
Mus musculus [43] = assay: Decrease in blood free fatty acid levels in KKAy mouse at 200 mg/kg, po after 1 week
3T3-L1 [44] = assay: Increase in adiponectin gene expression in mouse 3T3L1 cells at 30 uM after 2 days relative to beta-actin mRNA expression
3T3-L1 [45] = assay: Increase in adiponectin release in mouse 3T3L1 cells at 10 uM on day 6 by ELISA
Mus musculus [46] = assay: Decrease in blood free fatty acid levels in KKAy mouse at 200 mg/kg, po after 2 weeks
3T3-L1 [47] = assay: Increase in adiponectin release in mouse 3T3L1 cells at 100 uM on day 4 by ELISA
3T3-L1 [48] = assay: Increase in 2-Deoxyglucose-uptake in mouse 3T3L1 cells at 10 uM by liquid scintillation counter

Work on O=c1oc(-c2ccc(O)c(O)c2)cc2cc(O)cc(O)c12 [THUNBERGINOL B] yielded an Activity (3T3-L1 [1]) of -8%, an Activity (3T3-L1 [2]) of -7.8% and an Activity (3T3-L1 [3]) of 7.2%. The Activity (3T3-L1 [4]) was -3.8% and the Activity (3T3-L1 [5]) was 54.1%.

Compound O=c1oc(-c2ccc(O)c(O)c2)cc2cccc(O)c12 [THUNBERGINOL A] has an Activity (3T3-L1 [1]) of 17.5%, an Activity (3T3-L1 [2]) of 19.6% and an Activity (3T3-L1 [3]) of 15.7%. The Activity (3T3-L1 [4]) was 8% and the Activity (3T3-L1 [5]) was -27.6%.

With COc1ccc([C@H]2Cc3cccc(O[C@@H]4O[C@H](CO)[C@@H](O)[C@H](O)[C@H]4O)c3C(=O)O2)cc1O the Activity (3T3-L1 [1]) was 8.7%, the Activity (3T3-L1 [2]) was -1.5% and the Activity (3T3-L1 [3]) was -3%. For the same compound, the Activity (3T3-L1 [4]) was 3.6% and the Activity (3T3-L1 [5]) was 6.6%.

With O=C1OC(c2ccc(O)cc2)Cc2cc(O)cc(O)c21 (configuration not stated) [THUNBERGINOL C] the Activity (3T3-L1 [1]) was -7.5%, the Activity (3T3-L1 [2]) was -11.1% and the Activity (3T3-L1 [3]) was -17.6%. For the same compound, the Activity (3T3-L1 [4]) was -9.3% and the Activity (3T3-L1 [5]) was 1.4%.

With O=C1O/C(=C\c2ccc(O)c(O)c2)c2cccc(O)c21 [THUNBERGINOL F] the Activity (3T3-L1 [1]) was 6.2%, the Activity (3T3-L1 [2]) was 6.2% and the Activity (3T3-L1 [3]) was 8.3%. It also gave an Activity (3T3-L1 [4]) of 2.1% and an Activity (3T3-L1 [5]) of -54.8%.

Work on Cc1c(C)c2c(c(C)c1O)CCC(C)(COc1ccc(CC3SC(=O)NC3=O)cc1)O2 (configuration not stated) [TROGLITAZONE] yielded an Activity (Mus musculus [6]) of 0.8 mEq/L, an Activity (3T3-L1 [1]) of 40.5% and an Activity (Mus musculus [7]) of 0.95 mEq/L. For the same compound, the Ratio (3T3-L1 [8]) was 3.01, the Activity (3T3-L1 [2]) was 39.6% and the Activity (Mus musculus [9]) was 0.62 mEq/L. For the same compound, the Activity (Mus musculus [10]) was 293.3 mg/dL, the Activity (Mus musculus [11]) was 329.4 mg/dL and the Activity (3T3-L1 [12]) was 388%. The Activity (3T3-L1 [13]) was 101.2 ng/mL, the Activity (Mus musculus [14]) was 303.4 mg/dL and the Activity (Mus musculus [15]) was 464.6 mg/dL. The Activity (3T3-L1 [16]) was 43 ng/mL, the Ratio (3T3-L1 [17]) was 1.09 and the Activity (3T3-L1 [4]) was 33.8%. The Ratio (3T3-L1 [18]) was 2.92, the Ratio (3T3-L1 [19]) was 0.89 and the Activity (Mus musculus [20]) was 307.5 mg/dL.

COc1ccc([C@H]2Cc3cccc(O)c3C(=O)O2)cc1O [PHYLLODULCIN] was tested, and the Activity (3T3-L1 [1]) was 12.8%, the Activity (3T3-L1 [2]) was 9.8% and the Activity (3T3-L1 [3]) was 23.8%. It also gave an Activity (3T3-L1 [4]) of -0.7% and an Activity (3T3-L1 [5]) of 20.3%.

In the case of COc1ccc([C@H]2Cc3cc(O)cc(O)c3C(=O)O2)cc1O [THUNBERGINOL E], the Activity (3T3-L1 [1]) is reported as -7.5%, the Activity (3T3-L1 [2]) is reported as -8% and the Activity (3T3-L1 [3]) is reported as 3.4%. The Activity (3T3-L1 [4]) was -6.3% and the Activity (3T3-L1 [5]) was -4%.

Work on O=C(O)c1c(O)cccc1/C=C/c1ccc(O)cc1 [HYDRANGEAIC ACID] yielded an Activity (3T3-L1 [1]) of 11.7%, an Activity (3T3-L1 [2]) of 11.1% and an Activity (3T3-L1 [3]) of 27.3%. It also gave an Activity (3T3-L1 [4]) of 2.2% and an Activity (3T3-L1 [5]) of 41.2%.

Work on O=C1OC(c2ccc(O)c(O)c2)Cc2cc(O)cc(O)c21 (configuration not stated) [THUNBERGINOL D] yielded an Activity (3T3-L1 [1]) of 2.8%, an Activity (3T3-L1 [2]) of -0.8% and an Activity (3T3-L1 [3]) of 4%. The Activity (3T3-L1 [4]) was -1.2% and the Activity (3T3-L1 [5]) was 12.5%.

Work on O=C1OC(c2ccc(O)cc2)Cc2cccc(O)c21 (configuration not stated) [HYDRANGENOL] yielded an Activity (3T3-L1 [21]) of 68.2 ng/mL, an Activity (Mus musculus [6]) of 1.07 mEq/L and a Ratio (3T3-L1 [22]) of 0.51. It also gave an Activity (3T3-L1 [1]) of 19.2%, an Activity (3T3-L1 [23]) of 302% and an Activity (Mus musculus [7]) of 0.96 mEq/L. The Activity (3T3-L1 [2]) was 17.7%, the Activity (Mus musculus [9]) was 0.91 mEq/L and the Activity (Mus musculus [24]) was 428.8 mg/dL. For the same compound, the Ratio (3T3-L1 [25]) was 1.92, the Activity (3T3-L1 [26]) was 245% and the Activity (Mus musculus [10]) was 389.1 mg/dL. For the same compound, the Activity (Mus musculus [11]) was 332.1 mg/dL, the Ratio (3T3-L1 [27]) was 0.78 and the Activity (3T3-L1 [28]) was 117%. It also gave an Activity (3T3-L1 [29]) of 99.8 ng/mL, an Activity (3T3-L1 [12]) of 160% and an Activity (Mus musculus [30]) of 397.5 mg/dL. The Activity (Mus musculus [31]) was 411.2 mg/dL, the Activity (3T3-L1 [13]) was 94 ng/mL and the Activity (Mus musculus [32]) was 336 mg/dL. For the same compound, the Activity (Mus musculus [33]) was 1.01 mEq/L, the Activity (Mus musculus [14]) was 429.3 mg/dL and the Activity (Mus musculus [34]) was 413.8 mg/dL. It also gave an Activity (3T3-L1 [35]) of 22.8 ng/mL, a Ratio (3T3-L1 [36]) of 1.12 and an Activity (3T3-L1 [37]) of 22.3 ng/mL. The Activity (Mus musculus [38]) was 422.7 mg/dL, the Ratio (3T3-L1 [39]) was 2.65 and the Ratio (3T3-L1 [40]) was 1.38. The Ratio (3T3-L1 [41]) was 2.46, the Activity (3T3-L1 [3]) was 29.9% and the Activity (Mus musculus [15]) was 483.9 mg/dL. It also gave an Activity (3T3-L1 [16]) of 27.4 ng/mL, an Activity (Mus musculus [42]) of 362.8 mg/dL and an Activity (Mus musculus [43]) of 0.81 mEq/L. It also gave a Ratio (3T3-L1 [44]) of 1.98, an Activity (3T3-L1 [45]) of 84.2 ng/mL and an Activity (3T3-L1 [4]) of 14.4%. For the same compound, the Activity (Mus musculus [46]) was 0.89 mEq/L, the Activity (3T3-L1 [5]) was 41.3% and the Activity (3T3-L1 [47]) was 33 ng/mL. The Activity (3T3-L1 [48]) was 221% and the Activity (Mus musculus [20]) was 336.3 mg/dL.

Work on O=C1OC(c2ccc(O)cc2)Cc2cccc(O[C@@H]3O[C@H](CO)[C@@H](O)[C@H](O)[C@H]3O)c21 (some centres not stated) yielded an Activity (3T3-L1 [1]) of 11.2%, an Activity (3T3-L1 [2]) of 1.2% and an Activity (3T3-L1 [3]) of 10.5%. The Activity (3T3-L1 [4]) was 11.1% and the Activity (3T3-L1 [5]) was 9.2%.
